The values that follow are results of earlier work, collected in PMC3694611 (Journal of natural products, 2012).

Data set [1] concerns Plasmodium falciparum. As to conditions: in words; ref [1a].
The conditions of data set [2]: in words; ref [ii].

Regarding Gallinamide A, in data set [1], the “activity against the malarial parasite Plasmodium falciparum” value is listed as “moderately active”. As to dolastatin-15, the anticancer potency result in data set [2] is on record as “exceedingly potent”.
